From patent publication US9890152B2 (Genentech, Inc., priority 2012, dated 2018)

Experiments:
[1] = target: T1, EGFR del746-750 T790M (Homo sapiens, UniProt P00533, DEL746-750/T790M); test: EGFR del746-750 T790M biochemical assay (Caliper mobility shift); settings: 5 μM ATP, 30 min, room temperature; apparent Ki (Morrison) converted by Cheng-Prusoff, Km of ATP 2.1 μM; read-out: EGFR(T790M/d746-750) Ki
T1 construct: purchased Carna Biosciences 08-528

[2] = target: T2, phosphor-EGFR in H1975(L585R/T790M) mutant EGFR expressing cells (Homo sapiens, UniProt P00533, L858R/T790M); test: H1975 pEGFR MSD cellular assay; assay type: cell-based; settings: NCI-H1975 cells, serum starved, 1 hour compound incubation, pEGFR Tyr1068 MSD
T2 construct: host or cells: NCI-H1975
Protocol: H1975 pEGFR MSD Cellular Assays Background:
These assays are intended for determining cellular. […] (Meso Scale Discovery Catalog# N31CB-1).
All cell culture reagents were purchased from Invitrogen/Gibco. Cells are cultured at 37° C. at 5% CO2 and split as recommended by ATCC.
Cell Plating and Serum Starvation:
After six hours, culture medium is aspirated and replaced with serum-free culture medium. Cells are then incubated with the serum-free medium overnight at 37° C. and 5% CO2.
The following day, test compounds are serially diluted in dimethyl sulfoxide (DMSO) and added to cells in serum free medium (final DMSO concentration 0.5%). Assay plates are then incubated for 1 hour at 37° C. and 5% CO2. Following 1 hour of compound incubation cells are then lysed and processed as per the MSD pEGFR assay kit protocol. Cell lysates are added to assay plates pre-coated with antibodies against phosphorylated EGFR. Phosphorylated EGFR in samples are allowed to bind to the capture antibodies overnight at 4° C. The detection antibody (anti-total EGFR, labeled with an electrochemiluminescent SULFO-TAG) is added to the bound lysate and incubated for 1 hour at room temperature. The MSD Read Buffer is added such that when a voltage is applied to the plate electrodes, the labels bound to the electrode surface emit light. The MSD Sector Instrument measures the intensity of the light, and quantitatively measures the amount of phosphorylated-EGFR in the sample. Percent inhibition of EGFR phosphorylation by varying concentrations of test compounds is calculated relative to untreated controls. EC50 values are calculated using the 4 parameter logistic nonlinear regression dose-response model.

T1 sequence (P00533 with tags, fused parts or gaps DEL746-750/T790M limits assumed): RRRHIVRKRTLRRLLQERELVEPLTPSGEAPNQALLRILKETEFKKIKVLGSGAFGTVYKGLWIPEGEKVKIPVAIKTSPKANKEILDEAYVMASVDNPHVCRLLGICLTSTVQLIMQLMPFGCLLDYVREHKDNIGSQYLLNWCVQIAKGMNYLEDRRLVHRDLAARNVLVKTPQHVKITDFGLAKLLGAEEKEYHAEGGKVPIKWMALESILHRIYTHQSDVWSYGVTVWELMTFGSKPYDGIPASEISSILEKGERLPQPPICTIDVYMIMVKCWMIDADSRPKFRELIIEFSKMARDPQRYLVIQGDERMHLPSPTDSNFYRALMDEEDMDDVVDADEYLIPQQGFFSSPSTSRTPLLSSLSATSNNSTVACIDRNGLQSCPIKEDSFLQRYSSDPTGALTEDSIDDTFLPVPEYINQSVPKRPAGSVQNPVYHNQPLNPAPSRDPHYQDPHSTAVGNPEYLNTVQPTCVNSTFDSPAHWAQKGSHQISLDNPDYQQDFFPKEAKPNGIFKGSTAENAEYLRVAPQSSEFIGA
T2 sequence (P00533 25-1210 T790M/L858R): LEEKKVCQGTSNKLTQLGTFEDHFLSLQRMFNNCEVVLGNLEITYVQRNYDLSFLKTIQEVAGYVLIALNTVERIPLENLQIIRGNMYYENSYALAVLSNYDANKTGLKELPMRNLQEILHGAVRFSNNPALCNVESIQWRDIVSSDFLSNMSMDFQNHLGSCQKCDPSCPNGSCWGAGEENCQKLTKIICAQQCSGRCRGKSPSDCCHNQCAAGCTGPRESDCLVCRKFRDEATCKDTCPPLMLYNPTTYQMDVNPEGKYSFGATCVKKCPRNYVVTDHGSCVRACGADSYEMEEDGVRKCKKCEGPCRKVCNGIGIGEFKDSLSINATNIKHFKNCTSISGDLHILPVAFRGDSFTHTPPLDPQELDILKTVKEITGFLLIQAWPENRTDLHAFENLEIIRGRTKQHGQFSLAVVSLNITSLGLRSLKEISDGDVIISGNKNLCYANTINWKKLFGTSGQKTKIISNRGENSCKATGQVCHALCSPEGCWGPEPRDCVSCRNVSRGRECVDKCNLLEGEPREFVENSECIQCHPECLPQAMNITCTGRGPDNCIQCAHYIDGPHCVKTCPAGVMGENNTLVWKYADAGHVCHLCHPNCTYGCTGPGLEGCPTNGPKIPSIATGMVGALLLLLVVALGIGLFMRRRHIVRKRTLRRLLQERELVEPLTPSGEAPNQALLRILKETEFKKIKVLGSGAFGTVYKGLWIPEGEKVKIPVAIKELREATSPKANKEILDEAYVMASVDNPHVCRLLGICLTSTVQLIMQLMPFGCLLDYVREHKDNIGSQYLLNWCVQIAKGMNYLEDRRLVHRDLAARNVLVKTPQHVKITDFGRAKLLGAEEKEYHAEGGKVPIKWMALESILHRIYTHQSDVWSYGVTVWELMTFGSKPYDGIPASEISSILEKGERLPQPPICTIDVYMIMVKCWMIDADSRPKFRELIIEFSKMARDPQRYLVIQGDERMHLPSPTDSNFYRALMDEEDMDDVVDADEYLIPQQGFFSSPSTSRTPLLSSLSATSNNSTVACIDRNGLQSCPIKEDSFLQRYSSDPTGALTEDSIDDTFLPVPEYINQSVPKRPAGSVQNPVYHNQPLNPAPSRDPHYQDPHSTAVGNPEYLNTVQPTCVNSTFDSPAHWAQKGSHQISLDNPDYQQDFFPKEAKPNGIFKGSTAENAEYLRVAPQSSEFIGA

Ki [1]: 5.81 nM
EC50 [2]: 24.7 nM
SMILES: COC1CCN(c2nccc(Nc3cc4c(cn3)nc([C@@H](C)O)n4[C@@H](C)C(F)(F)F)n2)CC1F (stereo partly drawn) [Example 543, (R)-1-[6-[2-(3-Fluoro-4-methoxypiperidin-1-yl)-pyrimidin-4-ylamino]-1-((S)-2,2,2-trifluoro-1-methyl-ethyl)-1H-imidazo[4,5-c]pyridin-2-yl]ethanol]
